These results are taken from US20100222426A1, “Anti-Bacterial Agents” (priority 2007, published 2010).

Converted amounts (≈) assume the structure as drawn. Like-named read-outs stand apart in the source and are kept apart here.

In data set [1] the test system is panel of multidrug-resistant strains of Staphylococcus aureus. Conditions: inventors' 2006 poster; cited from earlier work.
Data set [2] concerns S. aureus SA1199B. The experiment in a line: MIC assay (MHB microtitre, MTT). It is filed as cell-based. Conditions: Staphylococcus aureus.
Data set [3] deals with S. aureus XU212. Kind of data set: microbe, parasite or virus in culture. Format: cell-based. Conditions: Staphylococcus aureus.
Data set [4] concerns S. aureus RN4220. Kind of data set: MIC assay (MHB microtitre, MTT). Conditions: Staphylococcus aureus. Format: cell-based. As for the experimental part:
Bacteria were cultured on nutrient agar (Oxoid) and incubated for 24 h at 37 ° C. prior to MIC determination. […] An inoculum density of 5×10^5 cfu of S. aureus was prepared in normal saline (9 g/l) by comparison with a 0.5 MacFarland turbidity standard. The inoculum (125 μl) was added to all wells and the microtitre plate was incubated at 37° C. for 18 h. For MIC determination, 20 μl of a 5 mg/ml methanolic solution of 3-[4,5-dimethylthiazol-2-yl]-2,5-diphenyltetrazolium bromide (MTT; Sigma) was added to each of the wells and incubated for 20 min. Bacterial growth was indicated by a colour change from yellow to dark blue. The MIC was recorded as the lowest concentration at which no growth was observed.

Data set [5] deals with S. aureus ATCC25923. Kind of data set: MIC assay (MHB microtitre, MTT). Format: cell-based. Conditions: Staphylococcus aureus.
For data set [6], the system named is S. aureus EMRSA15. The experiment in a line: MIC assay (MHB microtitre, MTT). It is filed as cell-based. The settings on record: Staphylococcus aureus.
Data set [7] relates to S. aureus EMRSA16. Kind of data set: MIC assay (MHB microtitre, MTT). It is filed as cell-based. The settings on record: Staphylococcus aureus.
Data set [8] concerns M. smegmatis ATCC14468. The experiment in a line: MIC assay (MHB microtitre, MTT). The settings on record: Mycolicibacterium smegmatis. It is filed as cell-based.
Data set [9] deals with M. fortuitum ATCC6841. Kind of data set: MIC assay (MHB microtitre, MTT). The settings on record: Mycolicibacterium fortuitum. It is filed as cell-based.
The subject of data set [10] is M. smegmatis MC2 2700. Kind of data set: MIC assay (MHB microtitre, MTT). Format: cell-based. The settings on record: Mycolicibacterium smegmatis, MC22700.
Data set [11] deals with M. phlei ATCC11758. Kind of data set: MIC assay (MHB microtitre, MTT). Format: cell-based. Conditions: Mycolicibacterium phlei.
Data set [12] concerns P. aeruginosa K1119. Kind of data set: MIC assay (MHB microtitre, MTT). Format: cell-based. The settings on record: Pseudomonas aeruginosa.
In data set [13] the test system is P. aeruginosa K767. The experiment in a line: MIC assay (MHB microtitre, MTT). Format: cell-based. The settings on record: Pseudomonas aeruginosa.
Data set [14] concerns S. typhimurium L354. The experiment in a line: MIC assay (MHB microtitre, MTT). Format: cell-based. Conditions: Salmonella enterica.
Data set [15] concerns S. typhimurium L10. The experiment in a line: MIC assay (MHB microtitre, MTT). Format: cell-based. Conditions: Salmonella enterica.
The subject of data set [16] is epidemic methicillin-resistant Staphylococcus aureus 15 and 16. Kind of data set: MIC on IsoSensitest agar / broth, clinical isolates. It is filed as cell-based. The settings on record: in broth and agar, EMRSA-15 and 16 clinical isolates, read-out: minimum inhibitory concentration. How it is done:
(§1) Compound 7 was tested using bacteria which were recent clinical isolates, or were standard reference controls. The clinical isolates were selected to represent important resistant phenotypes currently prevalent in the UK and worldwide. They included (i) methicillin-resistant Staphylococcus aureus (MRSA), specifically the epidemic (E)MRSA-15 and 16 strains dominant in the UK; (ii) methicillin-resistant coagulase negative staphylococci (i.e. S. epidermidis, S. haemolyticus); (iii) vancomycin-resistant as well as susceptible Enterococcus faecalis and E. faecium; (iv) penicillin-resistant and—susceptible Streptococcus pneumoniae; (v) group A streptococci (=S. pyogenes, which remain universally susceptible to penicillin) and (vi) Clostridium difficile.
(§2) MICs were determined on IsoSensitest agar (ISA) (method of British Society for Antimicrobial Chemotherapy, http://www.bsac.org.uk) or by microdilution in IsoSensitest Broth (ISB). Both media were from Oxoid, Basingstoke, Hants. Plates were variously incubated, at 35-37° C., in air, air enriched with 5% CO2 or under anaerobic conditions.

The test system of data set [17] is methicillin-resistant coagulase-negative Staphylococcus epidermidis. Described as above. It is filed as cell-based. Conditions: in broth and agar, methicillin-resistant S. epidermidis, read-out: minimum inhibitory concentration. How it is done: as §1, §2
In data set [18] the test system is methicillin-sensitive Staphylococcus aureus. The data set is described as above. Format: cell-based. The settings on record: in broth and agar, methicillin-sensitive S. aureus, read-out: minimum inhibitory concentration. How it is done:
as §1, §2

In data set [19] the test system is methicillin-sensitive coagulase-negative Staphylococcus epidermidis. The data set is described as above. It is filed as cell-based. Conditions: in broth and agar, methicillin-sensitive S. epidermidis, read-out: minimum inhibitory concentration. As for the experimental part: as §1, §2
The subject of data set [20] is methicillin-sensitive coagulase-negative Staphylococcus haemolyticus. The data set is described as above. Format: cell-based. Conditions: in broth and agar, methicillin-sensitive S. haemolyticus, read-out: minimum inhibitory concentration. As for the experimental part:
as §1, §2

Data set [21] has as its system penicillin-resistant and penicillin-sensitive Streptococcus pneumoniae. The data set is described as above. It is filed as cell-based. Conditions: in broth and agar, penicillin-resistant and -sensitive S. pneumoniae, read-out: minimum inhibitory concentration. How it is done:
as §1, §2

Data set [22] deals with vancomycin-resistant and vancomycin-sensitive Enterococcus faecalis. The data set is described as above. It is filed as cell-based. Conditions: in broth and agar, vancomycin-resistant and -sensitive E. faecalis, read-out: minimum inhibitory concentration. As for the experimental part: as §1, §2
Data set [23] concerns vancomycin-resistant and vancomycin-sensitive Enterococcus faecium. Described as above. It is filed as cell-based. Conditions: in broth and agar, vancomycin-resistant and -sensitive E. faecium, read-out: minimum inhibitory concentration. As for the experimental part: as §1, §2
Data set [24] relates to Group A Streptococcus. Described as above. It is filed as cell-based, S. pyogenes. The settings on record: in broth and agar, read-out: minimum inhibitory concentration. As for the experimental part: as §1, §2
For data set [25], the system named is Enterococcus faecalis ATCC29212. Kind of data set: MIC on IsoSensitest agar / broth, standard laboratory strain. Format: cell-based. Conditions: in broth and agar, read-out: minimum inhibitory concentration. As for the experimental part:
as §1, §2

Data set [26] concerns NCTC6571 Staphylococcus aureus. Described as above. Format: cell-based. The settings on record: in broth and agar, read-out: minimum inhibitory concentration. As for the experimental part: as §1, §2
The subject of data set [27] is Streptococcus pneumoniae. The data set is described as above. It is filed as cell-based. Conditions: ATCC29212; in broth and agar; Streptococcus pneumoniae ATCC 29212; read-out: minimum inhibitory concentration. How it is done: as §1, §2
Data set [28] concerns MRSA and penicillin-resistant Staphylococcus aureus. Conditions: cited from earlier work.
For data set [29] the following is noted: has to be stabilised as a salt; cited from earlier work.

Regarding `O=c1c2cc(O)ccc2oc2cccc(O)c12` [1,7-dihydroxyxanthone], the minimum inhibitory concentration in [1] was 128 to 256 µg/mL.

Consider `CCC(C)C(=O)c1c(O)cc(O)cc1OC/C=C(\C)CCC=C(C)C` (centres unmarked) [Compound 7], for which the MIC worked out at 1 µg/mL (≈ 2.89 µM) in [2]; 1 µg/mL (≈ 2.89 µM) in [3]; 1 µg/mL (≈ 2.89 µM) in data set [4]; 1 µg/mL (≈ 2.89 µM) in [5]; 0.5 µg/mL (≈ 1.44 µM) in data set [6]; 1 µg/mL (≈ 2.89 µM) in data set [7]. Further, the MIC is 4 µg/mL (≈ 11.5 µM) in [8]; 8 µg/mL (≈ 23.1 µM) in data set [9]; 4 µg/mL (≈ 11.5 µM) in data set [10]; 4 µg/mL (≈ 11.5 µM) in [11]; above 512 µg/mL in [12]; above 512 µg/mL in [13] (K767). For the same compound, the MIC was above 512 µg/mL in data set [14]; above 512 µg/mL in [15]; 2 to 4 µg/mL (≈ 5.77 to 11.5 µM) in data set [16]; 2 to 8 µg/mL (≈ 5.77 to 23.1 µM) in data set [17]; 2 to 8 µg/mL (≈ 5.77 to 23.1 µM) in data set [18]; 2 to 4 µg/mL (≈ 5.77 to 11.5 µM) in [19]. In addition, the MIC was 16 µg/mL (≈ 46.2 µM) in data set [20]; 2 to 4 µg/mL (≈ 5.77 to 11.5 µM) in [21]; 4 µg/mL (≈ 11.5 µM) in data set [22]; 2 to 4 µg/mL (≈ 5.77 to 11.5 µM) in [23]; 4 µg/mL (≈ 11.5 µM) in data set [24]; 4 µg/mL (≈ 11.5 µM) in [25]. Also, the MIC in data set [26] and in data set [27] was 4 µg/mL (≈ 11.5 µM) in each case.

Consider `CC[C@H]1OC(=O)[C@H](C)[C@@H](O[C@H]2C[C@@](C)(OC)[C@@H](O)[C@H](C)O2)[C@H](C)[C@@H](O[C@@H]2O[C@H](C)C[C@H](N(C)C)[C@H]2O)[C@](C)(O)C[C@@H](C)C(=O)[C@H](C)[C@@H](O)[C@]1(C)O` [Erythromycin, erythromycin, reference compound], for which the MIC in data set [4] turned out to be 128 µg/mL (≈ 174 µM).

As to `CC[C@@H](CO)NCCN[C@@H](CC)CO` [Ethambutol], the MIC in [8], in [9], in [10] and in [11] was 0.5 µg/mL (≈ 2.45 µM) throughout.

With `CC(C)=CCC[C@]1(C)[C@@H](CC=C(C)C)C[C@@]2(CC=C(C)C)C(=O)[C@]1(C(=O)C(C)C)C(=O)C(CC=C(C)C)=C2O` [Hyperforin], the “Minimum Inhibitory Concentration (MIC)” value in [28] is 0.1 to 0.5 µg/mL. For the same compound, the stability result in [29] is listed as “unstable”.

With `NNC(=O)c1ccncc1` [Isoniazid], the MIC worked out at 2 µg/mL (≈ 14.6 µM) in [8], 4 µg/mL (≈ 29.2 µM) in [9], 2 µg/mL (≈ 14.6 µM) in data set [10] and 2 µg/mL (≈ 14.6 µM) in [11].

As to `CCn1cc(C(=O)O)c(=O)c2cc(F)c(N3CCNCC3)cc21` [Norfloxacin, norfloxacin, reference compound], the MIC in data set [2] stood at 32 µg/mL (≈ 100 µM); in [5] it was 1 µg/mL (≈ 3.13 µM); in data set [12], 2 µg/mL (≈ 6.26 µM); in [13] (P. aeruginosa K767, read-out: MIC) it was 2 µg/mL (≈ 6.26 µM).

`Cc1onc(-c2ccccc2)c1C(=O)N[C@@H]1C(=O)N2[C@@H]1SC(C)(C)[C@@H]2C(=O)O` [Oxacillin, reference compound]: the MIC in data set [6] is 16 µg/mL (≈ 39.9 µM); in data set [7], 512 µg/mL (≈ 1280 µM).
